# Tests used:
# [1] = tested on: rats; assay: Toxic effects / adverse reactions observed during the rat incision pain study; assay type: in vivo, male Wistar rats; settings: single agents, i.v.
# Description: The rats were randomly divided into the following groups according to the body weight: blank control group (n=8), model group (n=8) and drug-administered group (n=48). The drug-administered group was divided into the following groups: compound 19-0.1 mg/kg group (n=8), compound 19-0.3 mg/kg group (n=8), compound 19-0.03 mg/kg+compound 35-0.1 mg/kg group (n=8), compound 19-0.03 mg/kg+compound 35-0.3 mg/kg group (n=8), compound 19-0.1 mg/kg+compound 35-0.1 mg/kg group (n=8), and compound 19-0.1 mg/kg+compound 35-0.3 mg/kg group (n=8). The model group and drug-administered group were subjected to an incision surgery. During the surgery, the rats were anesthetized with isoflurane. An incision (1 cm long) passing through the skin and fascia was made with a No. 10 surgical blade in the middle of the left hind paw. The skin was sutured with a 3-0 sterile silk surgical suture. The injured site was disinfected with antibiotic ointment and iodophor. The animals were returned to their original place to recover overnight. After 24 hours, the drug was injected through the tail vein, and the blank control group and the model group were administrated with the corresponding solvents. […] The mechanical pain threshold of each group was measured by the Electronic Von Frey 30 minutes after the injection to evaluate the analgesic effect of the drug on the surgical incision pain and the intensity thereof.
# [2] = tested on: incision pain in rats; assay: Incision pain test in rats, mechanical pain threshold by Electronic Von Frey; assay type: in vivo, male Wistar rats
smiles,measurement,setting,value
"CCO[C@H]1CC[C@H](NCC[C@@]2(c3ccccn3)CCOC3(CCCC3)C2)c2ccccc21 [compound 19, (1S,4S)-4-Ethoxy-N-(2-((R)-9-(pyridin-2-yl)-6-oxaspiro[4.5]decan-9-yl)ethyl)-1,2,3,4-tetrahydronaphthalen-1-amine]","toxic effects (such as slow movement and stiffness of limbs in rats), compound 19 alone versus compound 35 alone",[1],more obvious toxic effects
same,increase of tenderness threshold compared with the model group,"[2]; compound 19 0.1 mg/kg i.v. alone, 30 minutes after administration",233.8%
same,tenderness threshold,"[2]; compound 19 0.1 mg/kg i.v. alone, 30 minutes after administration, model group 11.08 g, blank control 37.68 g",36.99 g
"CNC(=O)NC1CCN(C(=O)[C@@H](CCCCN)NC(=O)[C@@H](CC(C)C)NC(=O)[C@@H](Cc2ccccc2)NC(=O)[C@H](N)Cc2ccccc2)CC1 [compound 35, (R)—N—((R)-6-Amino-1-(4-(3-methylureido)piperidin-1-yl)-1-oxohexan-2-yl)-2-((R)-2-((R)-2-amino-3-phenylpropanamido)-3-phenylpropanamido)-4-methylpentanamide]",increase of tenderness threshold compared with the model group,"[2]; rat, in vivo, iv, 0.3 mg/kg",102.3%
same,tenderness threshold,"[2]; rat, in vivo, iv, 0.3 mg/kg",22.42 g

# — US20200054594A1 (priority 2017, published 2020)
